From patent US9526740B2, “Prochelators as broad-spectrum antimicrobial agents and methods of use” (Duke University, priority 2013, dated 2016)
Converted amounts (≈) assume the structure as drawn. Read-outs that look alike come from different tables or passages of the source.

How the values were obtained:
C. neoformans H99 strain [1] = experiment: C. neoformans growth inhibition (OD600 growth curves, MIC); format: cell-based, Cryptococcus neoformans; conditions: for MIC: Cryptococcus neoformans, H99STRAIN, growth inhibition of C. neoformans, no Cu added; for C. neoformans growth with Cu, without H2O2: SC media + 10 μM CuSO4, no H2O2
Description: (§1) Top: Growth of C. neoformans H99 strain in SC media monitored by optical density (OD) over the course of 50 hours, where an increase in OD600 indicates normal growth. […] Bottom: In a follow up experiment to the growth curve assay shown on top, samples were taken after 50 h and plated to determine colony-forming units (CFUs).
The ability of 8-HQ to inhibit C. neoformans growth was tested with respect to metal specificity. The concentration of the indicated metals was held constant at 10 μM and cells were incubated in the presence of escalating doses of 8HQ from 0 to 50 μM. Growth was monitored over a time course in hours (x-axis) and the optical density at 600 nm was plotted at each time (y-axis).
WT C. neoformans H99 strain was grown in SC media+/−10 μM CuSO4 and 8HQ or QBP at indicated concentrations. Growth was monitored by OD600 and normalized to 100% viability for untreated controls after 50 h at 30° C.

[2] = system: MT1 gene in WT C. neoformans; experiment: MT1 gene expression by qPCR normalized to ACT1; format: cell-based, Cryptococcus neoformans; conditions: 30 min; for MT1 induction, compound alone: 10 μM compound, no Cu
Description: FIG. 6 is a graph showing Cu+8HQ (not QBP) increase expression levels of the MT1 gene. An overnight growth of WT C. neoformans was diluted in SC media to an OD600 of 0.2, incubated for 3 h to begin log phase growth, and treated with Cu and/or compound as indicated. After 30 min, cells were harvested and RNA was extracted, with subsequent RT-PCR to produce cDNA. Fold-change of MT1 was quantified using qPCR and normalized to ACT1. The strength of MT1 induction increases with [Cu].
5. 8HQ Increases the Cu Burden on C. neoformans. Our working hypothesis for the mechanism of action of 8HQ is that it increases the microbial burden of bioreactive Cu. If 8HQ translocates Cu into the cell in a bioavailable form, we would expect expression levels of proteins involved in Cu homeostasis to be sensitive to that influx. […] Metallothionein proteins are known to detoxify Cu and other metals by encasing them within cysteine-rich coordination sites. Increased expression of MT1 is consistent with our hypothesis that 8HQ increases bioavailable Cu, which is sensed by the cell in the form of MT1 transcription.

S. aureus = S. aureus dose response in tryptic soy broth; format: cell-based; conditions: no supplemental Cu
Description: FIG. 8 is a graph showing that S. Aureus dose response to 8HQ and QBP. Under these conditions, 8HQ inhibits S. Aureus growth at concentrations above ˜150 μM, whereas QBP in nontoxic up to ˜2.5 mM. Supplemental Cu was not added in these experiments, so presumably 8HQ is using Cu present in the tryptic soy broth medium.
(§2) 6. Broad Spectrum Activity The antimicrobial properties of oxine (8HQ) against a broad spectrum of fungal and bacterial pathogens has long been recognized. Taking advantage of this cytotoxic activity while minimizing damage to the host has prevented the application of these compounds to combat infectious disease in humans. […] We tested this hypothesis by comparing the cytotoxicity of 8HQ vs QBP against other microbes. Preliminary results indeed show a differential cytotoxicy of 8HQ vs QBP in S. aureus (FIG. 8), E. coli (FIG. 9) and M. marinum (data not shown). In these preliminary results, supplemental Cu was not added to the growth media, so presumably 8HQ uses the basal Cu present in the media to inflict its growth inhibitory action.

E. coli = E. coli dose response in M9 minimal medium; format: cell-based; conditions: no supplemental Cu
Description: FIG. 9 is a graph showing that E. coli dose response to 8HQ and QBP. Under these conditions, 8HQ inhibits E. coli growth at concentrations above ˜1.5 mM, whereas QBP in nontoxic up to 10 mM. Supplemental Cu was not added in these experiments, so presumably 8HQ is using Cu present in the M9 minimal medium.
as §2

[3] = Tolerability of intraperitoneal administration to mice; format: in vivo; conditions: 2 mg/kg or 10 mg/kg every second day over a two-week period
Excerpt: 4. Toxicity of Prochelator is Activated by H2O2.

M. marinum = M. marinum cytotoxicity comparison (data not shown); format: cell-based; conditions: no supplemental Cu, preliminary
Excerpt: 6. Broad Spectrum Activity The antimicrobial properties of oxine (8HQ) against a broad spectrum of fungal and bacterial pathogens has long been recognized. Taking advantage of this cytotoxic activity while minimizing damage to the host has prevented the application of these compounds to combat infectious disease in humans.

C. neoformans H99 strain [4] = experiment: C. neoformans growth inhibition (OD600 growth curves, MIC); format: cell-based, Cryptococcus neoformans; conditions: for Growth inhibition of C. neoformans in the presence of 1 mM CuSO4: QBP up to the 100 μM dose tested; for MIC: Cryptococcus neoformans, H99STRAIN
[5] = in vitro; 25° C.; cited from earlier work
[6] = system: murine macrophage-like J774A.1 cells; experiment: Viability of macrophage-like cells (CellTiter-Glo)
Description: Cells were seeded at 1×10^5 cells/mL in 96-well plate in DMEM+10% FBS, incubated at 37° C. for 12 h, and assayed for viability with CellTiter-Glo®.

[7] = system: IFN-γ and LPS-activated primary bone marrow derived macrophage cells (BMM); experiment: Viability of activated primary bone marrow derived macrophages; conditions: doses up to 50-100 μM, even with supplemental Cu; data not shown
C. neoformans H99 strain [8] = conditions: 10 μM or higher 8HQ in the presence of 10 μM CuSO4
Description: as §1

[9] = system: C. neoformans CTR1/4Δ strain; conditions: YPEG media without Cu supplementation
Description: (§3) FIG. 7 is a graph showing the Effects of 8HQ on growth of C. neoformans mutants. A) WT C. neoformans and a MT1/2Δ[…], strain were grown in SC media with 10 μM CuSO4 and increasing [8HQ].

[10] = system: C. neoformans MT1/2Δ strain; conditions: SC media with 10 μM CuSO4
Description: as §3

[11] = doses up to 50-100 μM, even with supplemental Cu
[12] = growth inhibition of C. neoformans, * 1 mM Cu2+, read-out: MIC (with added Copper(II) Sulfate)

CC1(C)C2CC3OB(c4cccc5cccnc45)O[C@]3(C)C1C2 (stereo in doubt) [QBP, quinoline boronic ester]
MIC (C. neoformans H99 strain [1]): > 100 µM
C. neoformans growth with Cu and H2O2 (C. neoformans H99 strain [1]; QBP/H2O2/Cu, SC media, 50 h at 30° C.): inhibited cell growth as well as 8HQ/Cu
C. neoformans growth with Cu, without H2O2 (C. neoformans H99 strain [1]; 50 h at 30° C.): did not inhibit cell growth
Toxicity to C. neoformans (C. neoformans H99 strain [1]; [11]): nontoxic
MT1 induction, compound alone [2]: do not cause robust induction of MT1
MT1 response, QBP+Cu ([2]; QBP+Cu (10 μM each)): responds identically to treatment with 10 μM CuSO4 alone
Concentration up to which nontoxic to S. aureus (S. aureus): ~2.5 mM
Concentration up to which nontoxic to E. coli (E. coli): up to 10 mM
Adverse effects in mice [3]: no obvious adverse affects
Toxicity to M. marinum compared with 8HQ (M. marinum): significantly less toxic
Growth inhibition of C. neoformans in the presence of 1 mM CuSO4 (C. neoformans H99 strain [4]): nontoxic
MIC (C. neoformans H99 strain [4]; [12]): > 100 µM
Rate constant of conversion to 8HQ upon reaction with H2O2 [5]: 0.25 M⁻¹ s⁻¹
Toxicity to J774A.1 cells [6, 11]: nontoxic
Toxicity to BMM [7]: nontoxic

Oc1ccc2ncccc2c1 [6HQ, 6-hydroxyquinoline]
MIC (C. neoformans H99 strain [1]): > 100 µM
Growth inhibition of C. neoformans in the presence of 1 mM CuSO4 (C. neoformans H99 strain [4]): does not inhibit growth
MIC (C. neoformans H99 strain [4]; [12]): > 100 µM

Oc1cccc2cccnc12 [8HQ, 8-hydroxyquinoline]
C. neoformans growth with Cu, without H2O2 (C. neoformans H99 strain [1]; 50 h at 30° C.): inhibits growth
Colony-forming units (CFUs) after 50 h (C. neoformans H99 strain [8]): absence of CFUs
MT1 induction, compound alone [2]: do not cause robust induction of MT1
MT1 levels, 8HQ+Cu ([2]; 8HQ+Cu (10 pM each)): MT1 levels greater than what is seen with 100 μM CuSO4 alone
Growth of transporter mutant on addition of 8HQ [9]: promotes growth
8HQ concentration at which growth defect begins [10]: 6.25 µM
Concentration above which S. aureus growth is inhibited (S. aureus): ~150 µM
Concentration above which E. coli growth is inhibited (E. coli): ~1.5 mM
C. neoformans growth (OD600), compound tested individually (C. neoformans H99 strain [4]; 100 μM 8HQ alone, SC media, 50 hours): not affected
MIC (C. neoformans H99 strain [4]; read-out: MIC (no Cu added), growth inhibition of C. neoformans, no Cu added): > 100 µM
MIC (C. neoformans H99 strain [4]; read-out: MIC (with added Copper(II) Sulfate), growth inhibition of C. neoformans, * 10 M Cu2+): 5 µM (≈ 0.726 µg/mL)
MIC (C. neoformans H99 strain [4]; read-out: MIC of 8HQ with supplemental Cu, 10 μM supplemental Cu (CuSO4)): 5 µM
MIC (C. neoformans H99 strain [4]; read-out: MIC of 8HQ with supplemental iron, 10 μM supplemental iron): 50 µM
MIC (C. neoformans H99 strain [4]; read-out: MIC of 8HQ with supplemental silver, 10 μM supplemental silver): 25 µM
MIC (C. neoformans H99 strain [4]; read-out: MIC of 8HQ with supplemental zinc, 10 μM supplemental zinc): 50 µM
IC50, cell viability of J774A.1 cells ([6]; medium supplemented with 10 μM CuSO4): sub-μM
IC50 ([6]; read-out: IC50, cell viability of J774A.1 cells, no supplemental Cu): ~5 µM

Cc1cc(-c2ccc(S(=O)(=O)O)cc2)c2ccc3c(-c4ccc(S(=O)(=O)O)cc4)cc(C)nc3c2n1 [BCS]
Change in MT1 expression, control chelator [2]: does not lead to a change in MT1 expression

O=S(=O)([O-])[O-].[Cu+2] [copper, Copper(II) Sulfate]
C. neoformans growth (OD600), copper tested individually (C. neoformans H99 strain [4]; 1 mM copper alone, SC media, 50 hours): not affected
